Reference: patent US20250041279A1, “THERAPEUTIC MEDICINE FOR HEART DISEASE OR SKELETAL MUSCLE DISEASE” (SHIONOGI & CO., LTD., priority 2021, published 2025)
pIC50: −log10 of the molar value. Read-outs that look alike come from different tables or passages of the source.

Columns and labels:
recombinant human ACC1 = recombinant human ACC1 (Homo sapiens (Human), UniProt Q13085); assay: Measurement of inhibitory activity of human ACC1 (MALDI-TOF MS); format: biochemical; settings: read-out: IC50 hACC1
Description: A cDNA encoding human ACC1 protein (1 amino acid residue to 2346 amino acid residues from the N-terminus) was cloned from a human liver cDNA library (BioChain Institute Inc.), myc tag and His-tag sequences were introduced at the 3′ end, and then inserted into pIEXBAC3 (Novagen). A recombinant baculovirus was produced in accordance with the protocol for Flash BACGOLD (Oxford Expression Technologies Ltd.), and Sf-9 cells were infected therewith to express human ACC1 protein. The recovered cells were crushed, filtered through a filter, and then subjected to Ni affinity chromatography and anion exchange chromatography. Fractions containing human ACC1 protein were collected to obtain recombinant human ACC1.
The recombinant human ACC1 and the recombinant human ACC2 obtained from the above Preparation Examples were preincubated in an assay buffer (50 mM HEPES-KOH (pH 7.4), 10 mM magnesium chloride, 6 to 10 mM potassium citrate, 4 mM glutathione reduced form, and 1.5 mg/ml bovine serum albumin) for 1 hour. Then, 5 μL of the pre-incubated enzyme solution and 5 μL of a substrate solution (50 mM HEPES-KOH (pH 7.4), 1 mM ATP, 0.8 mM acetyl-CoA, and 25 to 50 mM potassium bicarbonate) were added to a 384-well microplate into which 0.2 μl of each of solutions of the compound of the present invention (DMSO had been dispensed, and the mixture was centrifuged and shaken, and then incubated in a wet box at room temperature for 1 to 3 hours. After incubation, the enzymatic reaction was stopped by addition of EDTA, and then the sample was co-crystallized with an α-cyano-4-hydroxy cinnamic acid (CHCA) matrix on a MALDI target plate, and measurement was performed in a reflector negative mode using a matrix-assisted laser desorption ionization-time-of-flight mass spectrometer (MALDI-TOF MS). Deprotonated ions of the substrate acetyl-CoA (AcCoA) and the reaction product malonyl-CoA (MalCoA) were detected, and the intensity of each signal was used to calculate a conversion rate to malonyl-CoA or succinyl-CoA, i.e., intensity of [MalCoA-H]—/(intensity of [MalCoA-H]-+intensity of [AcCoA.H].). […] The potassium citrate concentration in the assay buffer, the potassium bicarbonate concentration in the substrate solution, and the incubation time were adjusted within the above concentrations or reaction times for each lot of the enzyme to be used.

[1] = Metabolic stability test, human liver microsomes; format: in vitro ADME; settings: 37° C., 30 minutes, NADPH
Description: Commercially available pooled human liver microsomes were reacted with the compound of the present invention for a given time. A residual rate was calculated by comparison between the reacted sample and the unreacted sample to evaluate a degree at which the compound of the present invention is metabolized in the liver.
The compound was reacted at 37° C. for 0 minutes or 30 minutes in the presence of 1 mmol/L NADPH in 0.2 mL of a buffer (50 mmol/L Tris-HCl pH 7.4, 150 mmol/L potassium chloride, and 10 mmol/L magnesium chloride) containing 0.5 mg protein/mL of the human liver microsomes (oxidative reaction). After the reaction, 50 μL of the reaction solution was added to 100 μL of a solution of methanol/acetonitrile=1/1 (v/v) and mixed, and the mixture was centrifuged at 3000 rpm for 15 minutes. The compound of the present invention in the centrifuged supernatant was quantified by LC/MS/MS or solid-phase extraction (SPE)/MS. The amount of the compound of the present invention remained after the reaction was calculated with the amount of the compound at 0 minutes of the reaction defined as 100%.

[2] = Metabolic stability test, rat; format: in vitro ADME; settings: 30 minutes
recombinant human ACC2 = recombinant human ACC2 (Homo sapiens (Human), UniProt O00763); assay: Measurement of inhibitory activity of human ACC2 (MALDI-TOF MS); format: biochemical; settings: read-out: IC50 hACC2
Sequence of recombinant human ACC2 (O00763 27-2458): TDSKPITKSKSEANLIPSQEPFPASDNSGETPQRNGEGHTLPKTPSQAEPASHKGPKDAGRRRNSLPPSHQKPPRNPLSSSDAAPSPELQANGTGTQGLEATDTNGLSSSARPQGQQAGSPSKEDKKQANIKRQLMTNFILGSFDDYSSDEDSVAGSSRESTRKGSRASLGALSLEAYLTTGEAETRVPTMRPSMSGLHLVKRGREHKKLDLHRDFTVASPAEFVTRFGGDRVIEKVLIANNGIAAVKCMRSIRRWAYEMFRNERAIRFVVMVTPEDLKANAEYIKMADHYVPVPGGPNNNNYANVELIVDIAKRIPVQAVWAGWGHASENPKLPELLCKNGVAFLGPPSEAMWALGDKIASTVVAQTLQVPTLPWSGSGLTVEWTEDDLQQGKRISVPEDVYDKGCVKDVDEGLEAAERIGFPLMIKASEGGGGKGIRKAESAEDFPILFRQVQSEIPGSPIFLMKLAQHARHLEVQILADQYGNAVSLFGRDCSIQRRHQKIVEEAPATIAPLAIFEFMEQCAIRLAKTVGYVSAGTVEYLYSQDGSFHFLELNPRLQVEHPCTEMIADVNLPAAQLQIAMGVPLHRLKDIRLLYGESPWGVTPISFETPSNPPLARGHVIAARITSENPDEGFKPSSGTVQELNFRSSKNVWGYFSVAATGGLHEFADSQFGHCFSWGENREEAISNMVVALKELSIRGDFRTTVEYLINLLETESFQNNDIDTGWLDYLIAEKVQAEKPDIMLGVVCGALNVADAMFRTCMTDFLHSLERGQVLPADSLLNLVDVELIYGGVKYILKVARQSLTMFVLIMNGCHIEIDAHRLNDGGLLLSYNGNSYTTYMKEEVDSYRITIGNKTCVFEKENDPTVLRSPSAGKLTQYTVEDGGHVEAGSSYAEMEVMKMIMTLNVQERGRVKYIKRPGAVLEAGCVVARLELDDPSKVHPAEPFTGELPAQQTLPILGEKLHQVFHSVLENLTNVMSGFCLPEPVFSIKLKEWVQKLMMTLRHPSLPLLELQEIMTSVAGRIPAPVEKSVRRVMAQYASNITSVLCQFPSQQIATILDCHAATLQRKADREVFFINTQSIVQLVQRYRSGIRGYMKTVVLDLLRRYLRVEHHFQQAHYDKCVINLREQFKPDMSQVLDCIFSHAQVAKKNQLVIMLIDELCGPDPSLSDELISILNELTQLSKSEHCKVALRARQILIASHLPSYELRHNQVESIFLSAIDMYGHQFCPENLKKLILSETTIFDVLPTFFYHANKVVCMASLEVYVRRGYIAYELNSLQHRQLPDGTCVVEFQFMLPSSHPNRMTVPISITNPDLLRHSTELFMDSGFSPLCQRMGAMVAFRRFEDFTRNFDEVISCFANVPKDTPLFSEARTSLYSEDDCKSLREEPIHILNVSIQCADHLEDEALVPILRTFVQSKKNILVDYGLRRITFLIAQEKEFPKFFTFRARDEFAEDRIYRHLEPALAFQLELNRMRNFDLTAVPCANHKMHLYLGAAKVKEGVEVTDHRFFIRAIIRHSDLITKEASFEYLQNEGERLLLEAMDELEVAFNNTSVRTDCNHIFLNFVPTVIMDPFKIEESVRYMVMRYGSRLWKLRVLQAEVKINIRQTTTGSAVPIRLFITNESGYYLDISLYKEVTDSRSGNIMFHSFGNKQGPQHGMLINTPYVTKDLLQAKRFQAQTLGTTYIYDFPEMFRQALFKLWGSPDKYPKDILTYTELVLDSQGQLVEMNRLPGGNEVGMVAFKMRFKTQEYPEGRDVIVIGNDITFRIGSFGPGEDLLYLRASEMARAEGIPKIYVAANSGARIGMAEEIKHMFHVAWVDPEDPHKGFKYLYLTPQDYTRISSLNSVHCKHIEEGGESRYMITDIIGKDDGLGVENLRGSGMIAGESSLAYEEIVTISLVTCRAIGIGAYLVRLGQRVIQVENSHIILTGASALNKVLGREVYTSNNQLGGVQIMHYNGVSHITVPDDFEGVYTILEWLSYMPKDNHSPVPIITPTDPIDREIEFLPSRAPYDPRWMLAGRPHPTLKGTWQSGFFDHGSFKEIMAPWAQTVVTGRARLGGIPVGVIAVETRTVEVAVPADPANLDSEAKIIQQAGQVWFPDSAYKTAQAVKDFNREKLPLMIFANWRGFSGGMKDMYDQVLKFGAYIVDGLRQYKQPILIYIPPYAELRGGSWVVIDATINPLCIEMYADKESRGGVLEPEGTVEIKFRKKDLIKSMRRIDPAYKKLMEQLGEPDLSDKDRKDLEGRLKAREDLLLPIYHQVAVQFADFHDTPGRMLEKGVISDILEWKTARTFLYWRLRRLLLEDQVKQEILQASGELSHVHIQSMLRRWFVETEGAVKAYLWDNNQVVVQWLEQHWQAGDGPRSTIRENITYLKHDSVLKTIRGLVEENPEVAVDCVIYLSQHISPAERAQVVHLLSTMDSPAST
Description: A cDNA encoding human ACC2 protein (27 amino acid residues to 2458 amino acid residues from the N-terminus) was cloned from a human kidney cDNA library (Clontech Laboratories, Inc.), a His-tag sequence was introduced at the 5′ end, and then inserted into pFastBac1 (Invitrogen). A recombinant baculovirus was produced in accordance with the protocol for a Bac-to-Bac baculovirus expression system (Invitrogen), and Sf-9 cells were infected therewith to express human ACC2 protein. The recovered cells were crushed, filtered through a filter, and then subjected to Ni affinity chromatography and anion exchange chromatography. Fractions containing human ACC2 protein were collected to obtain recombinant human ACC2.
The recombinant human ACC1 and the recombinant human ACC2 obtained from the above Preparation Examples were preincubated in an assay buffer (50 mM HEPES-KOH (pH 7.4), 10 mM magnesium chloride, 6 to 10 mM potassium citrate, 4 mM glutathione reduced form, and 1.5 mg/ml bovine serum albumin) for 1 hour. […] Deprotonated ions of the substrate acetyl-CoA (AcCoA) and the reaction product malonyl-CoA (MalCoA) were detected, and the intensity of each signal was used to calculate a conversion rate to malonyl-CoA or succinyl-CoA, i.e., intensity of [MalCoA-H]—/(intensity of [MalCoA-H]-+intensity of [AcCoA.H].). […] The potassium citrate concentration in the assay buffer, the potassium bicarbonate concentration in the substrate solution, and the incubation time were adjusted within the above concentrations or reaction times for each lot of the enzyme to be used.

NAFLD patients = settings: cited from earlier work
healthy subjects = settings: repeated administration to healthy subjects; cited from earlier work

Row | SMILES | pIC50 (recombinant human ACC1) | Remaining amount of compound, Human [1] [%] | Remaining amount of compound, Rat [2] [%] | pIC50 (recombinant human ACC2) | Plasma triglyceride concentration (NAFLD patients) | platelet concentration (healthy subjects) | Plasma triglyceride concentration (NAFLD patients; phase II study over 12 weeks)
1 | CC(=O)N[C@@H](CF)COC1CCC(Oc2nc3c(F)cc(OC4CC4)cc3n2C)CC1 (stereo partly drawn) [Compound I-4] | 5.57 | 93.4 | 87.3 | 8.33 | – | – | –
2 | C[C@@H](COC1CCC(Oc2nc3c(Cl)cc(OC4CC4)cc3n2C)CC1)NC(N)=O (stereo partly drawn) [Compound I-8] | 5.21 | 83.6 | 85.4 | 7.77 | – | – | –
3 | COc1cc(C(=O)N2CCC3(CC2)CC(=O)c2cc(-c4cncc(C(=O)O)c4)ccc2O3)cc2c1c(C)cn2C1CC1 [MK-4074] | – | – | – | – | elevated | – | –
4 | Cc1nc2ccc(C(=O)N3CCC4(CC3)CC(=O)c3c(cnn3C(C)C)C4)cc2[nH]1 [PF-05175157] | – | – | – | – | – | reduced | –
5 | COc1ccccc1[C@H](Cn1c(=O)n(C(C)(C)C(=O)O)c(=O)c2c(C)c(-c3ncco3)sc21)OC1CCOCC1 [firsocostat] | – | – | – | – | – | – | elevated

Further lines, with some results ahead:

Row | pIC50 (recombinant human ACC1) | Remaining amount of compound, Human [1] [%] | Remaining amount of compound, Rat [2] [%] | pIC50 (recombinant human ACC2) | SMILES | Plasma triglyceride concentration (NAFLD patients) | platelet concentration (healthy subjects) | Plasma triglyceride concentration (NAFLD patients; phase II study over 12 weeks)
6 | 6.49 | – | – | – | CC(=O)N[C@@H](C)COC1CCC(Oc2nc3c(F)cc(OC4CCC4)cc3n2C)CC1 (stereo partly drawn) [Compound I-1] | – | – | –
7 | 5.55 | 80.3 | 82.6 | – | CC(=O)N[C@@H](C)COC1CCC(Oc2nc3c(Cl)cc(OC4CC4)cc3n2C)CC1 (stereo partly drawn) [Compound I-3] | – | – | –
8 | 5.16 | 98.9 | 83.4 | 8.05 | Cn1c(OC2CCC(OC[C@H](CF)NC(N)=O)CC2)nc2c(F)cc(OC3CC3)cc21 (stereo partly drawn) [Compound I-5] | – | – | –
9 | 4.60 | 89.1 | 74.7 | 6.74 | CC(=O)N[C@@H](C)C(F)(F)C[C@H]1CCC(Oc2nc3c(F)cc(OCC(F)F)c(F)c3n2C)CO1 (stereo partly drawn) [Compound I-7] | – | – | –
10 | < 4.00 | – | – | 7.05 | CC(=O)N[C@@H](C)CC(F)(F)[C@@H]1CCC(Oc2nc3c(F)cc(OCC(F)F)c(F)c3n2C)CO1 (stereo partly drawn) [Compound I-10] | – | – | –
11 | 5.15 | 95.8 | 94.5 | 8.02 | C[C@@H](CCC1OCC(Oc2nc3c(F)cc(OCC(F)F)c(F)c3n2C)CO1)NC(N)=O (stereo partly drawn) [Compound I-11] | – | – | –
12 | 5.77 | 80.2 | 76.2 | 8.42 | CC(=O)N[C@@H](C)CCC1CCC(Oc2nc3c(F)cc(OC4CC4)cc3n2C)CC1 (stereo partly drawn) [Compound I-15] | – | – | –
